The target of assay [1] is T1, Dihydrofolate reductase (Homo sapiens) (UniProt P00374).
T1 sequence (whole entry): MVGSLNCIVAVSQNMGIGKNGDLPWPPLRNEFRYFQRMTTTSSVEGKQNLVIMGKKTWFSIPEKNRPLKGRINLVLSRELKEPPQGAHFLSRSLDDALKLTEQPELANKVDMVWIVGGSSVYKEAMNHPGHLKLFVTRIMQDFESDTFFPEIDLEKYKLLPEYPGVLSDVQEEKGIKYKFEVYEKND
The assay can be described thus: Percent inhibition of compound against recombinant human dihydrofolate reductase at a concentration of 100 uM.

The nature of assay [2]: (§1) Cytotoxicity of compound was determined against rat L-6 cells. It counts as functional, cell-based. The following applies: L6.
The subject of a further assay is Leishmania donovani. Kind of assay: In vitro inhibition of compound against Leishmania donovani was determined. It counts as functional, organism-based.
Another assay has as its system Trypanosoma cruzi. Kind of assay: In vitro inhibition of compound against Trypanosoma cruzi was determined. It counts as functional, organism-based.
Another assay has as its system Trypanosoma brucei. The assay can be described thus: In vitro inhibition of compound against Trypanosoma brucei was determined. It counts as functional, organism-based.
The target of assay [3] is Bifunctional dihydrofolate reductase-thymidylate synthase (Leishmania major) (UniProt P07382). The assay can be described thus: Percent inhibition of compound against recombinant Leishmanial major dihydrofolate reductase at a concentration of 100 uM.
Bifunctional dihydrofolate reductase-thymidylate synthase (Leishmania major), sequence (P07382 whole entry, looked up): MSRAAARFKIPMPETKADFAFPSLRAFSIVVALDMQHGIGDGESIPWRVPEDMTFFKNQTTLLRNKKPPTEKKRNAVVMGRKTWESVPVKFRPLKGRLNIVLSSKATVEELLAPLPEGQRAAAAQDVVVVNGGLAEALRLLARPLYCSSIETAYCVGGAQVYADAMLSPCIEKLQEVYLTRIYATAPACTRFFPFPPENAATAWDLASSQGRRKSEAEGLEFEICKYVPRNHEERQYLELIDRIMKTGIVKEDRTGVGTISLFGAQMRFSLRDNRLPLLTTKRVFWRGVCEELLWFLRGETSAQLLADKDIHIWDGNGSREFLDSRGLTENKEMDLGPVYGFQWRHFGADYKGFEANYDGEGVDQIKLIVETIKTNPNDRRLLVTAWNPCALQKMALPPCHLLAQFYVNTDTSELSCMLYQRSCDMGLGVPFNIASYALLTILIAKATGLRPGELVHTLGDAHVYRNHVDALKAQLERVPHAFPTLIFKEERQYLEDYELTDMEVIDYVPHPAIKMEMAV
The target of assay [4] is T1, Dihydrofolate reductase (Homo sapiens). Kind of assay: Percent inhibition of compound against recombinant human dihydrofolate reductase at a concentration of 50 uM.
Assay [5] has the same target. The assay can be described thus: Percent inhibition of compound against recombinant human dihydrofolate reductase at a concentration of 15 uM.
Assay [6] can be described thus: as §1. It counts as functional.

As for `COC(=O)N[C@H](C(=O)OC)[C@H](O)[C@@H](C)c1c(C)nc2n(C)c3ncn(Cc4ccccc4)c3c(=O)n12`, the inhibition was 16% in [1] and 24% in [3]. Also, the IC50 was 181 µM in assay [2], less than 21 µM with Leishmania donovani, 53 µM with Trypanosoma cruzi and 108 µM with Trypanosoma brucei.
In the case of `CCOC(=O)/C(C#N)=C/c1ccc(/C=C/c2ccccn2)cc1`, the inhibition is 43% in [1] and 50% in assay [3]. Also, the IC50 in assay [2] is greater than 296 µM; with Leishmania donovani, 47 µM; in the assay with Trypanosoma cruzi, 8.6 µM; in the assay on Trypanosoma brucei it was 15 µM.
Turning to `CCn1ncc2c1n/c(=N\c1ccccc1)n1ccc3ccccc3c21`, the results for the inhibition in assay [1] and in assay [3] were 10% and 28%, respectively. Also, the IC50 in [2] is greater than 265 µM; in the assay with Leishmania donovani it was 54 µM; with Trypanosoma cruzi it was 60 µM; in the assay with Trypanosoma brucei, 35 µM.
Turning to `O=c1[nH]c(=O)n([C@H]2C[C@H](O)[C@@H](CO)O2)c2nc(-c3ccccc3)c(-c3ccccc3)nc12`, the inhibition in assay [4] was determined as 37%; in assay [3] it was 50%. Also, the IC50 in [2] was 208 µM; with Leishmania donovani it was 69 µM; in the assay on Trypanosoma cruzi, 35 µM; with Trypanosoma brucei, 11 µM.
For the compound `COC(=O)/C(C#N)=C/c1ccc(/C=C/c2ccccn2)cc1`, the inhibition in assay [5] is 21%; in assay [3], 32%. Besides, the results for the IC50 in the assay on Leishmania donovani, in the assay on Trypanosoma cruzi and in the assay on Trypanosoma brucei were 56 µM, 30 µM and 16 µM, respectively. The compound further gave an MIC in [6] greater than 310 µM.

For orientation: inhibition means how much of the control response was suppressed. What is called IC50 is the concentration that inhibits the measured activity by half. Low readings indicate greater potency, high ones weaker potency.

Source of the values: ChEMBL document CHEMBL1134037, “Novel inhibitors of Leishmanial dihydrofolate reductase” (Bioorg Med Chem Lett, 2001).
